Key:
[1] = target: T1, human recombinant ETA receptors (Homo sapiens, UniProt P25101); experiment: Inhibition of [125I]ET-1 binding to membranes from CHO cells carrying human ETA receptors
T1 construct: expressed in transfected cells; host or cells: CHO cells
T1 sequence (P25101 21-427): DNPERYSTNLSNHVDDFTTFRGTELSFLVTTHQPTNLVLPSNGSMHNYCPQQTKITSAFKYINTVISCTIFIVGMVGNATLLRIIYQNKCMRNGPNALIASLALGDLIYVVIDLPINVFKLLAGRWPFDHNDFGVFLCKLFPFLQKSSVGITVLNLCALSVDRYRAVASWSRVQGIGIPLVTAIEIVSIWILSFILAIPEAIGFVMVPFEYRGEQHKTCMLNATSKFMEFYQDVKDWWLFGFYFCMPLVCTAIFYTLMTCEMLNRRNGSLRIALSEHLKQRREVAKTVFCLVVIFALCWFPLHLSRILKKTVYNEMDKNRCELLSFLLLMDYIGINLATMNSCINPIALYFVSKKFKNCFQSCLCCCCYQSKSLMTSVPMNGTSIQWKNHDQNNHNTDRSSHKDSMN
Procedure: (§1) 1) Inhibition of Endothelin Binding to Membranes from CHO Cells Carrying Human ET Receptors:
(§2) For competition binding studies, membranes of CHO cells expressing human recombinant ETA or ETB receptors were used.
(§3) The assay was performed in 200 uL 50 mM Tris/HCl buffer, pH 7.4, including 25 mM MnCl2, 1 mM EDTA and 0.5% (w/v) BSA in polypropylene microtiter plates. […] After 2 h, the membranes were filtered on filterplates containing GF/C filters (Unifilterplates from Can berra Packard S. A. Zürich, Switzerland). To each well, 50 uL of scintillation cocktail was added (MicroScint 20, Can berra Packard S. A. Zürich, Switzerland) and the filter plates counted in a microplate counter (TopCount, Can berra Packard S. A. Zürich, Switzerland).
(§4) All the test compounds were dissolved, diluted and added in DMSO.

[2] = target: T2, human recombinant ETB receptors (Homo sapiens, UniProt P24530); experiment: Inhibition of [125I]ET-1 binding to membranes from CHO cells carrying human ETB receptors
T2 construct: expressed in transfected cells; host or cells: CHO cells
T2 sequence (P24530 27-442): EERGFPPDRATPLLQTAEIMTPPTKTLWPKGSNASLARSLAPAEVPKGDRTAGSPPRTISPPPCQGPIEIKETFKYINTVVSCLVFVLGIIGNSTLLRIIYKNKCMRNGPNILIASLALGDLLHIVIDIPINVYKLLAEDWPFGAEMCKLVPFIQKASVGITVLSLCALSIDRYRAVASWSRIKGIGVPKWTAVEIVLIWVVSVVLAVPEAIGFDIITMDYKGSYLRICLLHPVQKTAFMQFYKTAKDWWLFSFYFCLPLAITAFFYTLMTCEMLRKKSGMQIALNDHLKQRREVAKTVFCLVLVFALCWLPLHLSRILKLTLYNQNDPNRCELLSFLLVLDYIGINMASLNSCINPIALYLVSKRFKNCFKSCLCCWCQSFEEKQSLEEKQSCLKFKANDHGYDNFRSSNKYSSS
Procedure: as §1, §2, §3, §4

[3] = target: T3, rat aortic rings (ETA receptors) (Rattus norvegicus, UniProt P26684); experiment: Inhibition of endothelin-1-induced contractions on isolated rat aortic rings; type: cell-based; conditions: read-out: pA2 (aortic rings) (converted)
T3 construct: from tissue; host or cells: thoracic aorta rings of adult Wistar rats, endothelium removed
T3 sequence (P26684 21-426): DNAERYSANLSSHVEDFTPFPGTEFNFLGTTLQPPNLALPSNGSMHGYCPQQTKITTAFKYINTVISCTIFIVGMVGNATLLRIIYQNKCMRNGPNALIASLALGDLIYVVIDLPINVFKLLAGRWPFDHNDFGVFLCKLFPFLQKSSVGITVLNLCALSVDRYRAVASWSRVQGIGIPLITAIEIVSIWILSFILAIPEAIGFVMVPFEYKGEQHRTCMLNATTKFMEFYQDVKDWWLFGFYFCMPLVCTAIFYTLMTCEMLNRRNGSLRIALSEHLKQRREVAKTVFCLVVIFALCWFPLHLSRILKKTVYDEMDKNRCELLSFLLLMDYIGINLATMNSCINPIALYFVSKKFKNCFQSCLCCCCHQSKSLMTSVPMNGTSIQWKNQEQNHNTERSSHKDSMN
Procedure: (§5) 2) Inhibition of Endothelin-Induced Contractions on Isolated Rat Aortic Rings (ETA Receptors) and Rat Tracheal Rings (ETB Receptors):
(§6) Adult Wistar rats were anesthetized and exsanguinated. The thoracic aorta or trachea were excised, dissected and cut in 3–5 mm rings. The endothelium/epithelium was removed by gentle rubbing of the intimal surface. […] The rings were connected to force transducers and isometric tension was recorded (EMKA Technologies SA, Paris, France). The rings were stretched to a resting tension of 3 g (aorta) or 2 g (trachea). […] The functional inhibitory potency of the test compound was assessed by calculating the concentration ratio, i.e. the shift to the right of the EC50 induced by different concentrations of test compound. EC50 is the concentration of endothelin needed to get a half-maximal contraction, pA2 is the negative logarithm of the antagonist concentration which induces a two-fold shift in the EC50 value.

[4] = target: T4, rat tracheal rings (ETB receptors) (Rattus norvegicus, UniProt P21451); experiment: Inhibition of sarafotoxin S6c-induced contractions on isolated rat tracheal rings; type: cell-based
T4 construct: from tissue; host or cells: tracheal rings of adult Wistar rats, epithelium removed
T4 sequence (P21451 27-442): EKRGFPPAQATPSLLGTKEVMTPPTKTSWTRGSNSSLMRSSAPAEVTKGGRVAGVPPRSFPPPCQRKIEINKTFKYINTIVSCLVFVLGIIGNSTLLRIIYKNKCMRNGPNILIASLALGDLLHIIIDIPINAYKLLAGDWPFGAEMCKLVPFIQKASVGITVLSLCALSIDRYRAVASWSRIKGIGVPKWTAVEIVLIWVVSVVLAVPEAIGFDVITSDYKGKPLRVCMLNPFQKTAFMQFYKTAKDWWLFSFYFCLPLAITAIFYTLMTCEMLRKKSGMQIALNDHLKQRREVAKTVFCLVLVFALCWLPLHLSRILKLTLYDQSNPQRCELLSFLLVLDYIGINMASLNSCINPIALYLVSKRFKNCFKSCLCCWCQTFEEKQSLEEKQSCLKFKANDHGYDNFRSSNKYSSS
Procedure: as §5, §6

Row | Structure (SMILES) | IC50 [1] [nM] | IC50 [2] [nM] | Kb [3] [nM] | Kb [4] [nM]
1 | Cc1ccc(-c2c(NS(=O)(=O)CCc3ccccc3)ncnc2OCCOc2ncccn2)cc1 [Example 1, 2-phenyl-ethanesulfonic acid {6-[2-(pyrimidin-2-yloxy)-ethoxy]-5-p-tolyl-pyrimidin-4-yl}-amide] | 27 | 6650 | – | –
2 | Cc1ccc(-c2c(NS(=O)(=O)CCc3ccccc3)ncnc2OCCOc2ccc(C(F)(F)F)cn2)cc1 [Example 2, 2-phenyl-ethanesulfonic acid {5-p-tolyl-6-[2-(5-trifluoromethyl-pyridin-2-yloxy)-ethoxy]-pyrimidin-4-yl}-amide] | 20 | 899 | – | –
3 | COc1ccccc1Oc1c(NS(=O)(=O)CCc2ccccc2)nc(-c2ncccn2)nc1OCCOc1ncc(Br)cn1 [Example 5, 2phenylethanesulfonic acid {5-(2-methoxy-phenoxy)-6-[2-(5-bromopyrimidin-2-yloxy)-ethoxy]-2-(2-pyrimidinyl)-4-pyrimidinyl}-amide] | 3 | – | 4.17 | –
4 | Cc1ccc(-c2c(NS(=O)(=O)CCc3ccccc3)ncnc2OCCOc2ncc(Br)cn2)cc1 [Example 7] | 4 | 3310 | 1.48 | 85.1
5 | Cc1ccc(-c2c(NS(=O)(=O)CCc3ccccc3)ncnc2OCCOc2ncc(C)cn2)cc1 [Example 8] | – | – | 37.2 | –
6 | Cc1ccc(-c2c(NS(=O)(=O)CCc3ccccc3)nc(-c3ccncc3)nc2OCCOc2ncc(Br)cn2)cc1 [Example 10] | 9 | 2410 | – | –
7 | Cc1ccc(-c2c(NS(=O)(=O)CCc3ccccc3)nc(-c3ncccn3)nc2OCCOc2ncc(Cl)cn2)cc1 [Example 13] | 4 | 3680 | – | –
8 | Cc1ccc(-c2c(NS(=O)(=O)CCc3ccccc3)nc(-c3ncccn3)nc2OCCOc2ncc(Br)cn2)cc1 [Example 14] | 6 | 2230 | – | –
9 | Cc1ccc(-c2c(NS(=O)(=O)CCc3ccccc3)ncnc2OCCOc2ncc(Br)cn2)cc1C [Example 19] | 3 | 1930 | – | –
10 | COc1cnc(OCCOc2nc(-c3ncccn3)nc(NS(=O)(=O)CCc3ccccc3)c2Oc2ccccc2OC)nc1 [Example 29] | 10 | – | – | –
11 | COc1cnc(OCCOc2nc(-c3cnccn3)nc(NS(=O)(=O)CCc3ccccc3)c2Oc2ccccc2OC)nc1 [Example 34] | – | – | 21.4 | –
12 | COc1ccccc1Oc1c(NS(=O)(=O)CCc2ccccc2)nc(N2CCOCC2)nc1OCCOc1ncc(SC)cn1 [Example 39] | 3 | 261 | – | –
13 | COc1cccc(Oc2c(NS(=O)(=O)CCc3ccccc3)ncnc2OCCOc2ncc(Br)cn2)c1 [Example 46] | 7 | 2360 | – | –
14 | COc1cnc(OCCOc2ncnc(NS(=O)(=O)CCc3ccccc3)c2Oc2cccc(OC)c2)nc1 [Example 47] | 24 | 2720 | – | –
15 | Cc1ccc(-c2c(NS(=O)(=O)CCc3cccs3)ncnc2OCCOc2ncc(Br)cn2)cc1 [Example 49] | 4 | 2490 | – | –
16 | O=S(=O)(CCc1cccs1)Nc1ncnc(OCCOc2ncc(Br)cn2)c1-c1ccc(Cl)cc1 [Example 52] | 5 | 1770 | – | –
17 | COc1ccccc1Oc1c(NS(=O)(=O)CCc2ccccn2)nc(-c2ccncc2)nc1OCCOc1ncc(Br)cn1 [Example 61] | 10 | 1140 | 14.8 | 85.1
18 | COc1ccccc1Oc1c(NS(=O)(=O)Cc2ccc(C)cc2)nc(-c2ccncc2)nc1OCCOc1ncc(Br)cn1 [Example 71] | 115 | > 10000 | – | –
19 | Cc1ccc(-c2c(NS(=O)(=O)CCCc3ccccc3)ncnc2OCCOc2ncc(Br)cn2)cc1 [Example 75] | – | – | 17.4 | –

Source: patent US7091201B2, “Arylalkane-sulfonamides having endothelin-antagonist activity” (Actelion Pharmaceuticals Ltd., priority 2000, dated 2006)
